Assay results as given in patent US12344649B2, “Modulators of parathyroid hormone receptor (PTHR1)” (Flagship Pioneering Innovations VI, LLC, priority 2019, dated 2025).
Several values for one entry are separate records, joined by “and”; a condition that tells them apart may be missing. Identical values can stand only once. Where no end group is shown, it is not given here.

Legend:
Type in all cases: cell-based
PTHR1 [1] = target: T1, PTHR1 (Homo sapiens, UniProt Q03431); experiment: cAMP accumulation assay (HTRF) in CHO-K1/Ga15/PTHR1 cells; parameters: host or cells: CHO-K1 (recombinant line CHO-K1/Ga15/PTHR1); settings: for Emax: CHO-K1, cAMP assay, fitted dose-response maximum; for cAMP accumulation activity compared to control peptide: FIG. 3, PTH 1-34 positive control; for cAMP: relative to PTH [1-34], CHO-K1/Ga15/PTHR1 cells
T1 sequence (Q03431 27-593): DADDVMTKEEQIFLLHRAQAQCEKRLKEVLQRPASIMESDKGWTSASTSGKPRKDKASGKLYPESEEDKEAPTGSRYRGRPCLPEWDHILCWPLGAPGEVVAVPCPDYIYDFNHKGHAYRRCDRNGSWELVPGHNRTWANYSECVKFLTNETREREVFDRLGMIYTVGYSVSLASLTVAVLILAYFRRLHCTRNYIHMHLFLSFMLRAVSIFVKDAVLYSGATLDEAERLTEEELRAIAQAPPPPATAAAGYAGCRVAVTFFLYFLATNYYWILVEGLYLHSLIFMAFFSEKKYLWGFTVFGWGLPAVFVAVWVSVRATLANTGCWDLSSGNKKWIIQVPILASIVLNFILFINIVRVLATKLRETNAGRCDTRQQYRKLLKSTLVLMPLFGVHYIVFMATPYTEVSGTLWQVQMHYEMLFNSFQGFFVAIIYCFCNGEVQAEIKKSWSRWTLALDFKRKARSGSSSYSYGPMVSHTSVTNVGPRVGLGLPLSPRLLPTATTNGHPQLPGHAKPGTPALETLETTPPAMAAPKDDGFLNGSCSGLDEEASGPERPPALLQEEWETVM
Description: Cell suspension (5 μL) was seeded in 384-well plates at a density of 3,000 cells/well. Cells were treated with test samples (5 μL) or agonist (PTH 1-34) for 30 minutes at room temperature. cAMP-d2 working solution (5 μL) and anti-cAMP-Cryptate working solution (5 μL) were added to cells and incubated for 60 minutes at room temperature. The signal of the assay plate was read with PheraStar (BMG LABTECH, NC), an HTRF compatible reader.

PTHR1 [2] = target: T1, PTHR1; experiment: β-arrestin1 recruitment BRET assay in transfected HEK293T cells; parameters: Flag (N); Life Technologies Corporation, CA (arrestin cDNA); host or cells: HEK293T (CRL-3216, ATCC); settings: for −log10Slope / EC50: β-arrestin1 recruitment, replicate plates; for −log10Slope: fitted curve slope; for EC50: read-out: −log10EC50 (converted)
Description: (§1) 18-24 hours post transfection, the Luciferase substrate Coelenterazine (NanoLight Technologies, AZ) was added to cells, a baseline BRET measurement was taken after 5 minutes incubation, and then serial dilutions of peptides, diluted in PBS (with 0.5 mM MgCl2+0.1% BSA FAF), were added to cells, and BRET signal was measured every 2 minutes for 30 minutes on Hybrid Multi-Mode Reader (Synergy Neo2, BioTek, VT). Seventy-five peptides were tested in the β-arrestin recruitment assay.

PTHR1 [3] = target: T1, PTHR1; experiment: β-arrestin2 recruitment BRET assay in transfected HEK293T cells; parameters: Flag (N); Life Technologies Corporation, CA (arrestin cDNA); host or cells: HEK293T (CRL-3216, ATCC); settings: for β-arrestin2 assay activity compared to control peptide: FIG. 2, PTH 1-34 positive control; for β2-arrestin: relative to PTH [1-34], HEK293T cells, BRET; for −log10Slope / EC50: β-arrestin2 recruitment, replicate plates; for −log10Slope: fitted curve slope; for EC50: read-out: −log10EC50 (converted)
Description: as §1

[4] = cAMP accumulation, fitted curve slope, replicate plates
[5] = cAMP accumulation, replicate plates, read-out: −log10EC50 (converted)
[6] = cAMP assay, fitted dose-response curve, read-out: −log10EC50 (converted)
[7] = cAMP assay, fitted dose-response slope

## CC[C@H](C)[C@H](NC(=O)[C@H](CCC(=O)O)NC(=O)[C@H](CO)NC(=O)[C@@H](NC(=O)[C@@H](N)CO)C(C)C)C(=O)N[C@@H](CCC(N)=O)C(=O)N[C@@H](CC(C)C)C(=O)N[C@@H](CCSC)C(=O)N[C@@H](Cc1cnc[nH]1)C(=O)N[C@@H](CC(N)=O)C(=O)N[C@@H](CC(C)C)C(=O)NCC(=O)N[C@@H](CCCCN)C(=O)N[C@@H](Cc1cnc[nH]1)C(=O)N[C@@H](CC(C)C)C(=O)N[C@@H](CC(N)=O)C(=O)N[C@@H](CO)C(=O)N[C@@H](CCSC)C(=O)N[C@@H](CCC(=O)O)C(=O)N[C@@H](CCCN=C(N)N)C(=O)N[C@H](C(=O)N[C@@H](CCC(=O)O)C(=O)N[C@@H](Cc1c[nH]c2ccccc12)C(=O)N[C@@H](CC(C)C)C(=O)N[C@@H](CCCN=C(N)N)C(=O)N[C@@H](CCCCN)C(=O)N[C@@H](CCCCN)C(=O)N[C@@H](CC(C)C)C(=O)N[C@@H](CCC(N)=O)C(=O)N[C@@H](CC(=O)O)C(=O)N[C@H](C(=O)N[C@@H](Cc1cnc[nH]1)C(=O)N[C@@H](CC(N)=O)C(=O)N[C@@H](Cc1ccccc1)C(=O)O)C(C)C)C(C)C [Teriparatide, reference compound]
PTHR1 [1]
  Emax: 100%
  cAMP accumulation activity compared to control peptide: increased activity as compared to the control peptide
  cAMP: ++
PTHR1 [1]; cAMP accumulation, fitted curve slope, replicate plates, listed as R1-101
  −log10Slope: −4.492 and −4.864 and −4.046
PTHR1 [2]; relative to PTH [1-34], HEK293T cells, BRET
  β1-arrestin: +
PTHR1 [2]; listed as R1-101
  −log10Slope: −2.906 and −3.664 and −1.356
PTHR1 [3]
  β-arrestin2 assay activity compared to control peptide: increased activity as compared to control
  β2-arrestin: ++
PTHR1 [3]; listed as R1-101
  −log10Slope: −3.44 and −3.409 and −3.396

## AVAEIQLMHQRAKWAIQEIGIKITRELLERYL [Peptide R2-42]
PTHR1 [1]; [4]
  −log10Slope: 13.11
PTHR1 [1]; [5]
  EC50: 0.285 µM
PTHR1 [2]
  −log10Slope: −1.503 and −1.149 and −5.574
PTHR1 [3]
  β-arrestin2 assay activity compared to control peptide: activity similar to the control peptide
  β2-arrestin: +
  −log10Slope: −2.7849 and −2.122 and −2.912
  EC50: 0.00807 µM and 0.00422 µM and 0.0237 µM

## AVAEIQLMHQRAKWDLLIELVKLLHELLKEYI [Peptide R2-40]
PTHR1 [1]
  cAMP accumulation activity compared to control peptide: increased activity as compared to the control peptide
  cAMP: ++
PTHR1 [1]; [4]
  −log10Slope: −2.205
PTHR1 [1]; [5]
  EC50: 5.83e-06 µM
PTHR1 [2]
  −log10Slope: −4.125 and −1.577
  EC50: 0.571 µM and 3.6 µM
PTHR1 [3]
  −log10Slope: −3.733 and −2.83
  EC50: 0.856 µM and 1.41 µM

## AVAEIQLMHQRAKWELQEIGIKITLDLLEAYL [Peptide R2-39]
PTHR1 [2]
  −log10Slope: −0.2801 and −4.065 and −4.878
  EC50: 0.775 µM and 0.594 µM
PTHR1 [3]
  −log10Slope: −5.314 and −3.58 and −2.2339

## AVAEIQLMHQRAKWKQELELEEKNKKILEDVY [Peptide R2-32]
PTHR1 [1]; [4]
  −log10Slope: −14.3219
PTHR1 [1]; [5]
  EC50: 0.312 µM

## AVAEIQLMHQRAKWRAEYELREMLLRLLEEIF [Peptide R1-96]
PTHR1 [1]
  Emax: 99.7%
  cAMP accumulation activity compared to control peptide: activity similar to the control peptide
  cAMP: +
PTHR1 [1]; [6]
  EC50: 0.00986 µM
PTHR1 [1]; [7]
  −log10Slope: −3.352

## AVAEIQLMHQRAKWSILEELLKILTALLDEYI [Peptide R2-46]
PTHR1 [2]
  −log10Slope: −3.506 and −2.782 and −5.541
  EC50: 0.565 µM and 0.447 µM and 0.394 µM
PTHR1 [3]
  −log10Slope: −3.413 and −1.882 and −2.306
  EC50: 0.539 µM and 0.187 µM and 0.55 µM

## AVATIQLMTDIAKIRAEYELREMLLRLLEEIF [Peptide R2-6]
PTHR1 [1]; [4]
  −log10Slope: −0.3341

## GIAVFTIMHLRIYLRAEYELREMLLRLLEEIF [Peptide R2-17]
PTHR1 [1]; [4]
  −log10Slope: −2.077
PTHR1 [1]; [5]
  EC50: 448 µM

## GIAVITIMIDYAKLRAEYELREMLLRLLEEIF [Peptide R2-22]
PTHR1 [1]
  EC50: 7.09e-05 µM
  cAMP accumulation activity compared to control peptide: increased activity as compared to the control peptide
  cAMP: ++
PTHR1 [1]; [4]
  −log10Slope: 7.165

## GIAVLTILDLRAKLRAEYELREMLLRLLEEIF [Peptide R2-14]
PTHR1 [1]
  EC50: 5.21e-06 µM
  cAMP accumulation activity compared to control peptide: increased activity as compared to the control peptide
  cAMP: ++
PTHR1 [1]; [4]
  −log10Slope: 2.196

## GLAALTIGLLRAKLRAEYELREMLLRLLEEIF [Peptide R2-24]
PTHR1 [1]
  EC50: 4.24e-05 µM
  cAMP accumulation activity compared to control peptide: increased activity as compared to the control peptide
  cAMP: ++
PTHR1 [1]; [4]
  −log10Slope: 5.587

## GVAEIQLMHDIPVIRAEYELREMLLRLLEEIF [Peptide R2-3]
PTHR1 [1]; [4]
  −log10Slope: −8.5715
PTHR1 [1]; [5]
  EC50: 11.8 µM

## GVAEIQLMVDLDIIRAEYELREMLLRLLEEIF [Peptide R2-12]
PTHR1 [1]; [4]
  −log10Slope: −2.726
PTHR1 [1]; [5]
  EC50: 137 µM

## GVAELQLMHDLAKIKLELELKVKLLEILKDVY [Peptide R2-49]
PTHR1 [1]
  Emax: 99.9%
PTHR1 [1]; [6]
  EC50: 1.62 µM
PTHR1 [1]; [7]
  −log10Slope: −5.638

## GVAELQLMHFRALLRAEYELREMLLRLLEEIF [Peptide R2-7]
PTHR1 [1]; [4]
  −log10Slope: −0.9597
PTHR1 [1]; [5]
  EC50: 26100 µM

## GVALLQIVHDFAKIRAEYELREMLLRLLEEIF [Peptide R2-5]
PTHR1 [1]; [4]
  −log10Slope: −4.972

## GVAMLQILHDKAKVRAEYELREMLLRLLEEIF [Peptide R2-11]
PTHR1 [1]
  EC50: 2.01 µM
PTHR1 [1]; [4]
  −log10Slope: −11.3552

## GVSMLQIMHDLAVIRAEYELREMLLRLLEEIF [Peptide R2-4]
PTHR1 [1]; [4]
  −log10Slope: −13.5432
PTHR1 [1]; [5]
  EC50: 1.36 µM

## GVVMLQFMHDVAKIRAEYELREMLLRLLEEIF [Peptide R2-9]
PTHR1 [1]; [4]
  −log10Slope: −0.02713

## GVYAIQAMHDLAKIRAEYELREMLLRLLEEIF [Peptide R2-10]
PTHR1 [1]; [4]
  −log10Slope: −8.781
PTHR1 [1]; [5]
  EC50: 32.5 µM

## LILVEQLMDLRAYLRAEYELREMLLRLLEEIF [Peptide R2-16]
PTHR1 [1]; [4]
  −log10Slope: −8.301
PTHR1 [1]; [5]
  EC50: 19.6 µM

## LILVKKIIDLRAYLRAEYELREMLLRLLEEIF [Peptide R2-21]
PTHR1 [1]; [4]
  −log10Slope: −8.121
PTHR1 [1]; [5]
  EC50: 21.2 µM

## LMHNLGKHLNSMERVEWLRKKLQDVHNFVA [PTH 7-36 antago, reference compound]
PTHR1 [2]
  −log10Slope: −1.192
  EC50: 0.105 µM
PTHR1 [3]
  −log10Slope: −2.649
  EC50: 0.0469 µM

## PIPVKDIMDLRAYLRAEYELREMLLRLLEEIF [Peptide R2-19]
PTHR1 [1]; [4]
  −log10Slope: −5.2427
PTHR1 [1]; [5]
  EC50: 20.5 µM

## SIIGEQLMLLRALLRAEYELREMLLRLLEEIF [Peptide R2-18]
PTHR1 [1]; [4]
  −log10Slope: −1.186
PTHR1 [1]; [5]
  EC50: 5940 µM

## VDFEIQLMQQRAQWIADYRIREFLDKLIAEIF [Peptide R1-94]
PTHR1 [1]
  Emax: 90.8%
  cAMP accumulation activity compared to control peptide: increased activity as compared to the control peptide
  cAMP: ++
PTHR1 [1]; [6]
  EC50: 7.36e-05 µM
PTHR1 [1]; [7]
  −log10Slope: −3.981
